From ChEMBL document CHEMBL1147434, “Synthesis and biological results of the technetium-99m-labeled 4-nitroimidazole for imaging tumor hypoxia” (Bioorg Med Chem Lett, 2004)

Experiments:
Assay type in all cases: ADME, organism-based
[1] = system: Mus musculus; assay: In vivo biodistribution of radiolabeled [99mTc]N4IPA in mice tumor/heart bearing S180 tumor cell line for 2 hours; conditions: ccrf s-180, 2 h
[2] = system: Mus musculus; assay: In vivo biodistribution of radiolabeled [99mTc]-N4IPA in mice spleen bearing S180 tumor cell line for 4 hours; conditions: ccrf s-180, 4 h
[3] = system: Mus musculus; assay: In vivo biodistribution of radiolabeled [99mTc]N4IPA in mice tumor/blood bearing S180 tumor cell line for 1 hour; conditions: ccrf s-180, 1 h
[4] = system: Mus musculus; assay: In vivo biodistribution of radiolabeled [99mTc]N4IPA in mice heart bearing S180 tumor cell line for 2 hours; conditions: ccrf s-180, 2 h
[5] = system: Mus musculus; assay: In vivo biodistribution of radiolabeled [99mTc]-N4IPA in mice blood bearing S180 tumor cell line for 4 hours; conditions: ccrf s-180, 4 h
[6] = system: Mus musculus; assay: In vivo biodistribution of radiolabeled [99mTc]N4IPA in mice tumor/heart bearing S180 tumor cell line for 1 hour; conditions: ccrf s-180, 1 h
[7] = system: Mus musculus; assay: In vivo biodistribution of radiolabeled [99mTc]N4IPA in mice brain bearing S180 tumor cell line for 30 minutes; conditions: ccrf s-180, 0.5 h
[8] = system: Mus musculus; assay: In vivo biodistribution of radiolabeled [99mTc]-N4IPA in mice tumor/lung bearing S180 tumor cell line for 8 hours; conditions: ccrf s-180, 8 h
[9] = system: Mus musculus; assay: In vivo biodistribution of radiolabeled [99mTc]-N4IPA in mice tumor bearing S180 tumor cell line for 1 hour; conditions: ccrf s-180, 1 h
[10] = system: Mus musculus; assay: In vivo biodistribution of radiolabeled [99mTc]N4IPA in mice tumor/blood bearing S180 tumor cell line for 8 hours; conditions: ccrf s-180, 8 h
[11] = system: Mus musculus; assay: In vivo biodistribution of radiolabeled [99mTc]-N4IPA in mice blood bearing S180 tumor cell line for 2 hours; conditions: ccrf s-180, 2 h
[12] = system: Mus musculus; assay: In vivo biodistribution of radiolabeled [99mTc]-N4IPA in mice spleen bearing S180 tumor cell line for 2 hours; conditions: ccrf s-180, 2 h
[13] = system: Mus musculus; assay: In vivo biodistribution of radiolabeled [99mTc]N4IPA in mice tumor/blood bearing S180 tumor cell line for 2 hours; conditions: ccrf s-180, 2 h
[14] = system: Mus musculus; assay: In vivo biodistribution of radiolabeled [99mTc]-N4IPA in mice heart bearing S180 tumor cell line for 1 hour; conditions: ccrf s-180, 1 h
[15] = system: Mus musculus; assay: In vivo biodistribution of radiolabeled [99mTc]-N4IPA in mice muscle bearing S180 tumor cell line for 8 hours; conditions: ccrf s-180, 8 h
[16] = system: Mus musculus; assay: In vivo biodistribution of radiolabeled [99mTc]-N4IPA in mice blood bearing S180 tumor cell line for 8 hours; conditions: ccrf s-180, 8 h
[17] = system: Mus musculus; assay: In vivo biodistribution of radiolabeled [99mTc]N4IPA in mice tumor/lung bearing S180 tumor cell line for 2 hours; conditions: ccrf s-180, 2 h
[18] = system: Mus musculus; assay: In vivo biodistribution of radiolabeled [99mTc]N4IPA in mice lung bearing S180 tumor cell line for 8 hours; conditions: ccrf s-180, 8 h
[19] = system: Mus musculus; assay: In vivo biodistribution of radiolabeled [99mTc]-N4IPA in mice kidney bearing S180 tumor cell line for 8 hours; conditions: ccrf s-180, 8 h
[20] = system: Mus musculus; assay: In vivo biodistribution of radiolabeled [99mTc]N4IPA in mice brain bearing S180 tumor cell line for 2 hours; conditions: ccrf s-180, 2 h
[21] = system: Mus musculus; assay: In vivo biodistribution of radiolabeled [99mTc]N4IPA in mice liver bearing S180 tumor cell line for 2 hours; conditions: ccrf s-180, 2 h
[22] = system: Mus musculus; assay: In vivo biodistribution of radiolabeled [99mTc]-N4IPA in mice tumor/lung bearing S180 tumor cell line for 30 minutes; conditions: ccrf s-180, 0.5 h
[23] = system: Mus musculus; assay: In vivo biodistribution of radiolabeled [99mTc]-N4IPA in mice muscle bearing S180 tumor cell line for 4 hours; conditions: ccrf s-180, 4 h
[24] = system: Mus musculus; assay: In vivo biodistribution of radiolabeled [99mTc]-N4IPA in mice tumor/heart bearing S180 tumor cell line for 4 hours; conditions: ccrf s-180, 4 h
[25] = system: Mus musculus; assay: In vivo biodistribution of radiolabeled [99mTc]-N4IPA in mice spleen bearing S180 tumor cell line for 8 hours; conditions: ccrf s-180, 8 h
[26] = system: Mus musculus; assay: In vivo biodistribution of radiolabeled [99mTc]N4IPA in mice tumor bearing S180 tumor cell line for 2 hours; conditions: ccrf s-180, 2 h
[27] = system: Mus musculus; assay: In vivo biodistribution of radiolabeled [99mTc]-N4IPA in mice tumor/heart bearing S180 tumor cell line for 8 hours; conditions: ccrf s-180, 8 h
[28] = system: Mus musculus; assay: In vivo biodistribution of radiolabeled [99mTc]N4IPA in mice tumor/muscle bearing S180 tumor cell line for 8 hours; conditions: ccrf s-180, 8 h
[29] = system: Mus musculus; assay: In vivo biodistribution of radiolabeled [99mTc]-N4IPA in mice tumor/liver bearing S180 tumor cell line for 8 hours; conditions: ccrf s-180, 8 h
[30] = system: Mus musculus; assay: In vivo biodistribution of radiolabeled [99mTc]-N4IPA in mice brain bearing S180 tumor cell line for 1 hour; conditions: ccrf s-180, 1 h
[31] = system: Mus musculus; assay: In vivo biodistribution of radiolabeled [99mTc]-N4IPA in mice tumor bearing S180 tumor cell line for 30 minutes; conditions: ccrf s-180, 0.5 h
[32] = system: Mus musculus; assay: In vivo biodistribution of radiolabeled [99mTc]N4IPA in mice lung bearing S180 tumor cell line for 30 minutes; conditions: ccrf s-180, 0.5 h
[33] = system: Mus musculus; assay: In vivo biodistribution of radiolabeled [99mTc]-N4IPA in mice lung bearing S180 tumor cell line for 1 hour; conditions: ccrf s-180, 1 h
[34] = system: Mus musculus; assay: In vivo biodistribution of radiolabeled [99mTc]-N4IPA in mice blood bearing S180 tumor cell line for 1 hour; conditions: ccrf s-180, 1 h
[35] = system: Mus musculus; assay: In vivo biodistribution of radiolabeled [99mTc]-N4IPA in mice muscle bearing S180 tumor cell line for 30 minutes; conditions: ccrf s-180, 0.5 h

Biodistribution [1]: 3.39 % g-1
Biodistribution [2]: 0.08 % g-1
Biodistribution [3]: 1.19 % g-1
Biodistribution [4]: 0.12 % g-1
Biodistribution [5]: 0.18 % g-1
Biodistribution [6]: 3.22 % g-1
Biodistribution [7]: 0.04 % g-1
Biodistribution [8]: 3.09 % g-1
Biodistribution [9]: 0.45 % g-1
Biodistribution [10]: 2.06 % g-1
Biodistribution [11]: 0.22 % g-1
Biodistribution [12]: 0.09 % g-1
Biodistribution [13]: 1.81 % g-1
Biodistribution [14]: 0.14 % g-1
Biodistribution [15]: 0.04 % g-1
Biodistribution [16]: 0.15 % g-1
Biodistribution [17]: 2.24 % g-1
Biodistribution [18]: 0.1 % g-1
Biodistribution [19]: 2.26 % g-1
Biodistribution [20]: 0.04 % g-1
Biodistribution [21]: 0.46 % g-1
Biodistribution [22]: 1.42 % g-1
Biodistribution [23]: 0.04 % g-1
Biodistribution [24]: 4.47 % g-1
Biodistribution [25]: 0.06 % g-1
Biodistribution [26]: 0.39 % g-1
Biodistribution [27]: 5.39 % g-1
Biodistribution [28]: 8.83 % g-1
Biodistribution [29]: 1.41 % g-1
Biodistribution [30]: 0.04 % g-1
Biodistribution [31]: 0.55 % g-1
Biodistribution [32]: 0.39 % g-1
Biodistribution [33]: 0.22 % g-1
Biodistribution [34]: 0.28 % g-1
Biodistribution [35]: 0.15 % g-1
Compound: N/C(CCn1cnc([N+](=O)[O-])c1)=N\O
